The values that follow come from PMC6597039, “Bioactive secondary metabolites from new endophytic fungus Curvularia. sp isolated from Rauwolfia macrophylla” (PLoS ONE, 2019).

What is called EC50 is the concentration at which the effect is half-maximal. In general, MIC refers to the lowest concentration that inhibits growth of the organism. For orientation: IC50 means the concentration that inhibits the measured activity by half.

A short description of assay [1]: DPPH free radical scavenging assay. The note with it: Table 3, unit not given in the table (μM); read-out: EC50 Antioxidant activity (DPPH•). Background: DPPH is a stable violet radical that fades when it is reduced.
A short description of assay [2]: ABTS+ free radical scavenging assay. To be noted: Table 3, unit not given in the table (μM); read-out: EC50 Antiradical activity (ABTS+).
Assay [3] has as its system Escherichia coli (DSMZ1058). The assay is described as follows: In vitro antibacterial assay, micro-dilution MIC. The note with it: Escherischia coli, 37 °C, 24 h. In kind it is cell-based.
In assay [4] the test system is Staphylococcus warneri (DSMZ20036). The assay is described as follows: In vitro antibacterial assay, micro-dilution MIC. To be noted: 37 °C, 24 h. The format is cell-based. (In general: In broth dilution the organism is exposed to a series of concentrations in liquid medium.)
For another assay, the target named is Electric eel AChE (Electrophorus electricus, UniProt O42275). The assay is described as follows: biochemical. To be noted: substrate ATCI, pH 8.0, 25 °C, read-out: IC50 acetylcholinesterase inhibition.
Electric eel AChE, sequence (O42275 24-633): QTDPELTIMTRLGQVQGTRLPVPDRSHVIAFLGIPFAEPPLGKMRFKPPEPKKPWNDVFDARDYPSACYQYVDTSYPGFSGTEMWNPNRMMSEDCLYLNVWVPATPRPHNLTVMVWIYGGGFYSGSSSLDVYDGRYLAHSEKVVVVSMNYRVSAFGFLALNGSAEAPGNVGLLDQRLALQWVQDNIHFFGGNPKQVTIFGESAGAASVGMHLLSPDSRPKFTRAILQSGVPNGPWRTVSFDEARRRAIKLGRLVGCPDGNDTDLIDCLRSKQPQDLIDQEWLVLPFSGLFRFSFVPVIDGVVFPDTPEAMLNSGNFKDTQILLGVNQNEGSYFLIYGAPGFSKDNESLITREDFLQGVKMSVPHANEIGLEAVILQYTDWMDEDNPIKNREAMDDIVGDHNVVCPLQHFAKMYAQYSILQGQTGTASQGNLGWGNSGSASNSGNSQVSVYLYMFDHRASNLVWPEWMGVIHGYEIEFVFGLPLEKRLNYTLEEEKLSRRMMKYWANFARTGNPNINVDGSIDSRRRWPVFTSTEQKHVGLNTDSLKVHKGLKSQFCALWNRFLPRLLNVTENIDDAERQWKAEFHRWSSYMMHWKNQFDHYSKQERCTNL
Assay [5] concerns Escherichia coli, Micrococcus luteus, Pseudomonas agarici and Staphylococcus warneri. The assay is described as follows: In vitro antibacterial assay, MIC over all the tested bacterial strains. In kind it is cell-based. The note with it: range over four bacterial strains; read-out: MIC ranging over all the tested bacterial strains.
Assay [6] relates to Pseudomonas agarici (DSMZ11810). The assay is described as follows: In vitro antibacterial assay, micro-dilution MIC. In kind it is cell-based. The note with it: 30 °C, 24 h.
In assay [7] the test system is Micrococcus luteus (DSMZ1605). The assay is described as follows: In vitro antibacterial assay, micro-dilution MIC. The format is cell-based. The note with it: 30 °C, 24 h.
A further assay deals with p53-HDM2 interaction. The arrangement: method as in PMID 16246554. To be noted: cited from earlier work.
The subject of assay [8] is Trypanosoma cruzi trypomastigotes. The arrangement: method as in PMID 28572816. The note with it: cited from earlier work.
Another assay concerns mucosal-type mast cells. The note with it: cited from earlier work.

Converted amounts (≈) assume the structure as drawn.

On to `COc1ccc(O)c(C(C)(C)C)c1` [BHA, butylated hydroxyanisole, reference compound], for which the EC50 in assay [1] stood at 0.13 µM; in [2], 0.01 µM.
On to `Cc1cc(C(C)(C)C)c(O)c(C(C)(C)C)c1` [BHT, butylated hydroxytoluene, reference compound], for which the 50% effective concentration (EC50) came to 0.46 µM in assay [1] and 0.06 µM in assay [2].
Regarding `O=C1CC(O)C(CO)O1` (stereo not drawn) [Compound 1, 2'-deoxyribolactone], the 50% effective concentration (EC50) worked out at 0.66 ± 0.02 µM in [1] and 0.49 ± 0.02 µM in [2]. Further, the MIC in assay [3] was 0.3 µg/mL (≈ 2.27 µM); in assay [4], 0.17 µg/mL (≈ 1.29 µM); in assay [5], 0.17 to 0.58 µg/mL (≈ 1.29 to 4.39 µM); in assay [6] it was 0.19 µg/mL (≈ 1.44 µM); in [7] it was 0.32 µg/mL (≈ 2.42 µM). On Electric eel AChE, the IC50 was 1.93 µM.
With `C=C(C(=O)O)C(CCCCCC)C(=O)O` (stereo not drawn) [Compound 2, hexylitaconic acid], the half-maximal effective concentration (EC50) amounted to 0.56 ± 0.02 µM in assay [1] and 0.88 ± 0.02 µM in [2]. Further, the MIC in [3] was 0.58 µg/mL (≈ 2.71 µM); in assay [4] it was 0.58 µg/mL (≈ 2.71 µM); in assay [5] it was 0.17 to 0.58 µg/mL (≈ 0.793 to 2.71 µM); in [6] it was 0.29 µg/mL (≈ 1.35 µM); in assay [7] it was 0.29 µg/mL (≈ 1.35 µM). The half-maximal inhibitory concentration (IC50) at Electric eel AChE was 1.54 µM. Also, the “inhibition of p53-HDM2 interaction” value in the assay on p53-HDM2 interaction was “inhibitor”.
For `CC(C)[C@@H](C)/C=C/[C@@H](C)[C@H]1CC[C@H]2C3=CC=C4C[C@@H](O)CC[C@]4(C)[C@H]3CC[C@]12C` [Compound 3, ergosterol], the half-maximal effective concentration (EC50) in assay [1] was determined as 1.09 ± 0.02 µM; in [2], 0.83 ± 0.02 µM. Further, the “IC50 anti-Trypanosoma cruzi activity against trypomastigotes” value in [8] was 51.3 µg/mL (≈ 129 µM). Further, the “effect on the activity of mucosal-type mast cells” value in the assay on mucosal-type mast cells is listed as “inhibitory effect”. On Electric eel AChE, the IC50 was 1.52 µM.
As for `CNC(C)C1CCC(N)C(OC2C(N)CC(N)C(OC3OCC(C)(O)C(NC)C3O)C2O)O1` (stereo not drawn) [Gentamicin, reference compound], the MIC in [3], in assay [4], in assay [6] and in assay [7] was 0.01 µg/mL (≈ 0.0209 µM) in each case.
